The values below come from ChEMBL document CHEMBL3608291, “Chemical constituents of Miliusa balansae leaves and inhibition of nitric oxide production in lipopolysaccharide-induced RAW 264.7 cells” (Bioorg Med Chem Lett, 2015).

Data set [1] deals with RAW264.7. Description: Anti-inflammatory activity in LPS-stimulated mouse RAW264.7 cells assessed as inhibition of nitric oxide production at 20 uM by Griess reaction based ELISA method. The data set is classed as functional. Background: Griess reagent forms a coloured azo dye with nitrite.
Data set [2] has as its system RAW264.7. Nature of the data set: Cytotoxicity against mouse RAW264.7 cells assessed as reduction in cell viability at 10 to 40 uM by MTT assay. It is filed as cell-based. As to conditions: raw264.7, 40 µM. On the technique in general: Tetrazolium dyes change colour on reduction, which living cells bring about.
In data set [3] the test system is RAW264.7. Nature of the data set: Anti-inflammatory activity in LPS-stimulated mouse RAW264.7 cells assessed as inhibition of nitric oxide production at 10 uM by Griess reaction based ELISA method. It is filed as functional, cell-based.
The subject of data set [4] is RAW264.7. Description: Anti-inflammatory activity in LPS-stimulated mouse RAW264.7 cells assessed as inhibition of nitric oxide production at 40 uM by Griess reaction based ELISA method. It is filed as functional.
Data set [5] has as its system RAW264.7. Nature of the data set: Anti-inflammatory activity in LPS-stimulated mouse RAW264.7 cells assessed as inhibition of nitric oxide production at 10 to 40 uM by Griess reaction based ELISA method. The data set is classed as functional.

Usually inhibition stands for the drop in the measured response relative to a control, in per cent.

The structures appear in SMILES notation. Activity calls are given as the source filed them. The calls are words filed in the database; no cut-off is given here.

Consider `CC(=O)/C=C/[C@@]12O[C@@H](C[C@]1(C)O[C@@H]1O[C@H](CO)[C@@H](O)[C@H](O)[C@H]1O)[C@H](O)C2(C)C`, for which the inhibition at 20 µM in the data set with RAW264.7 [1] came out at 98.5%. In addition, the Activity result with RAW264.7 [2] is reported as “Non-toxic”.

On to `CC(=O)/C=C/[C@@]12O[C@@H](C[C@]1(C)O[C@@H]1O[C@H](CO[C@@H]3OC[C@](O)(CO)[C@H]3O)[C@@H](O)[C@H](O)[C@H]1O)[C@H](O)C2(C)C`, for which, in the data set on RAW264.7 [1], the inhibition at 20 µM amounted to 90.9%. The Activity result in the data set with RAW264.7 [2] is recorded as “Non-toxic”.

Regarding `CC(=O)/C=C/[C@@]12O[C@@H](CC1(C)C)C[C@@]2(C)O[C@@H]1O[C@H](CO)[C@@H](O)[C@H](O)[C@H]1O`, the inhibition at 20 µM in the data set on RAW264.7 [1] was determined as 84.8%. The Activity result in the data set with RAW264.7 [2] is “Non-toxic”.

For the compound `C[C@H](CC[C@H]1[C@H](C)C[C@H](O)CC1(C)C)O[C@@H]1O[C@H](CO)[C@@H](O)[C@H](O)[C@H]1O`, the inhibition result in the data set on RAW264.7 [3] and with RAW264.7 [1] was “Active” each time. Further, the inhibition at 40 µM in the data set on RAW264.7 [4] is 82%. Also, the Activity entry with RAW264.7 [2] is reported as “Non-toxic”.

With `C[C@H](/C=C/[C@@]1(O)[C@H](C)CC(=O)CC1(C)C)O[C@@H]1O[C@H](CO)[C@@H](O)[C@H](O)[C@H]1O`, the inhibition entry with RAW264.7 [3], in the data set with RAW264.7 [4] and in the data set with RAW264.7 [1] was “inactive” in each case. Also, in the data set on RAW264.7 [2], the Activity entry is “Non-toxic”.

As to `C[C@H](CC[C@H]1[C@H](C)CC(=O)CC1(C)C)O[C@@H]1O[C@H](CO)[C@@H](O)[C@H](O)[C@H]1O`, the inhibition entry with RAW264.7 [3], in the data set with RAW264.7 [4] and with RAW264.7 [1] was “inactive” throughout. In addition, the Activity result in the data set on RAW264.7 [2] is recorded as “Non-toxic”.

As for `CC1=C2C[C@@H]3[C@@](C)(C[C@]2(O)OC1=O)[C@H](O)CC[C@]3(C)O`, the inhibition entry with RAW264.7 [3], in the data set on RAW264.7 [4] and in the data set with RAW264.7 [1] was “inactive” each time. For the same compound, the Activity result in the data set with RAW264.7 [2] was “Non-toxic”.

`CC/C=C\CCO[C@@H]1O[C@H](CO)[C@@H](O)[C@H](O)[C@H]1O`: the inhibition at 20 µM in the data set with RAW264.7 [1] was 91.8%. Moreover, the Activity result in the data set with RAW264.7 [2] was “Non-toxic”.

For the compound `COc1cc([C@H](O)[C@H](CO)O[C@@H]2O[C@H](CO)[C@@H](O)[C@H](O)[C@H]2O)ccc1O`, the “inhibition (INH)” value with RAW264.7 [5] was 98%. The inhibition at 20 µM in the data set on RAW264.7 [1] is 91.5%. In addition, the Activity result with RAW264.7 [2] is “Non-toxic”.

As for `CC(C)CC(=O)c1c(O)cc(O)cc1O[C@@H]1O[C@H](CO)[C@@H](O)[C@H](O)[C@H]1O`, the inhibition result in the data set with RAW264.7 [3], with RAW264.7 [4] and in the data set on RAW264.7 [1] was “inactive” in each case. Moreover, the Activity entry with RAW264.7 [2] is reported as “Non-toxic”.

As for `COc1cc([C@H](O)[C@@H](O)CO)cc(OC)c1O` (relative stereo), the inhibition result in the data set with RAW264.7 [3], in the data set on RAW264.7 [4] and in the data set on RAW264.7 [1] was “inactive” each time. The Activity entry with RAW264.7 [2] was “Non-toxic”.

For the compound `COc1cc([C@H](O)[C@H](O)CO)cc(OC)c1O` (relative stereo), the inhibition entry in the data set with RAW264.7 [3], in the data set on RAW264.7 [4] and in the data set with RAW264.7 [1] was “inactive” in each case. In the data set with RAW264.7 [2], the Activity result is reported as “Non-toxic”.

Regarding `COc1cc([C@H](O)[C@@H](O)CO)ccc1O` (relative stereo), the inhibition entry with RAW264.7 [3], with RAW264.7 [4] and in the data set with RAW264.7 [1] was “inactive” throughout. Further, the “inhibition (INH)” value in the data set with RAW264.7 [5] is 48.4%. Further, the Activity result in the data set with RAW264.7 [2] was “Non-toxic”.

For the compound `COc1cc([C@H](O)[C@H](O)CO)ccc1O` (relative stereo), the inhibition entry in the data set with RAW264.7 [3], in the data set on RAW264.7 [4] and in the data set with RAW264.7 [1] was “inactive” throughout. Further, in the data set on RAW264.7 [5], the “inhibition (INH)” value was found to be 48.4%. Further, the Activity entry with RAW264.7 [2] is “Non-toxic”.

For `Oc1cc(O)c2c(c1)O[C@H](c1ccc(O)c(O)c1)[C@H](O)C2` [(-)-EPICATECHIN], the inhibition result in the data set on RAW264.7 [3] and in the data set with RAW264.7 [1] was “Active” in each case. Moreover, the inhibition at 40 µM in the data set on RAW264.7 [4] is 91.8%. Moreover, the Activity entry in the data set with RAW264.7 [2] is reported as “Non-toxic”.

`CC1=C2C[C@@H]3[C@@](C)(C[C@]2(O)OC1=O)[C@H](O)CC[C@@]3(C)O` [CHLORAEUDOLIDE]: the inhibition result with RAW264.7 [3], in the data set with RAW264.7 [4] and with RAW264.7 [1] was “inactive” throughout. Also, the Activity entry in the data set on RAW264.7 [2] is “Non-toxic”.

In the case of `COc1cc(-c2oc3cc(OC)c(O)c(O)c3c(=O)c2OC)ccc1O` [CHRYSOSPLENOL C], the inhibition result with RAW264.7 [3], with RAW264.7 [4] and with RAW264.7 [1] was “inactive” throughout. For the same compound, in the data set with RAW264.7 [2], the Activity entry is “Non-toxic”.

Consider `C[C@@H]1O[C@@H](OC[C@H]2O[C@@H](Oc3c(-c4ccc(O)c(O)c4)oc4cc(O)cc(O)c4c3=O)[C@H](O)[C@@H](O)[C@@H]2O)[C@H](O)[C@H](O)[C@H]1O` [RUTIN], for which the inhibition result in the data set on RAW264.7 [3], in the data set on RAW264.7 [4] and in the data set with RAW264.7 [1] was “inactive” throughout. Further, the Activity entry in the data set with RAW264.7 [2] is recorded as “Non-toxic”.

As for `O=C1/C(=C/c2ccc(O)c(O)c2)Oc2cc(O)ccc21` [SULFURETIN], the inhibition at 20 µM with RAW264.7 [1] came out at 81.3%.
